Reference: US20260284189A1, “TREATMENT OF NON-SMALL CELL LUNG CANCER” (ASTRAZENECA AB, priority 2023, published 2026)

Tests used:
[1] = test system: resectable non-small cell lung cancer (R-NSCLC); assay: AEGEAN phase III: event-free survival (EFS) by blinded independent central review; format: in vivo, human
Description: As used herein, the terms “event-free survival” or “EFS” refer to the time from randomization to the first of the following: a) local or distant recurrence as determined by BICR using RECIST 1.1 assessments; b) death due to any cause (event date is the date of death); c) PD that precludes surgery (event date is the date of this determination) or PD discovered and reported by the Investigator upon attempting surgery that prevents completion of surgery (event date is the date of the first attempt at surgery). Event-free survival can be analyzed using the log-rank test based on blinded independent central review (BICR) assessment using RECIST v1.1 and pathology review stratified by disease stage (Stage II versus Stage III) and by PD-L1 expression status (<1% versus >1%) on the mITT. The p-value can be obtained from the stratified log-rank test using the Efron (Hertz-Picciotto and Rockhill “Validity and efficiency of approximation methods for tied survival times in Cox regression.” Biometrics 1997; 53(3):1151-6.) approach for handling ties.
The AEGEAN (NCT03800134) study described herein is a phase III, double-blind, placebo-controlled, multi-center international study of assessed perioperative (i.e. neoadjuvant and adjuvant) durvalumab plus neoadjuvant chemotherapy for the treatment of patients with resectable stage II and stage III non-small cell lung cancer (R-NSCLC).
The study enrolled approximately 1300 patients and randomized approximately 800 eligible patients. Eligible patients had newly diagnosed, previously untreated, histologically or cytologically documented, resectable NSCLC (stage IIA to select [N2] stage IIIB according to the American Joint Committee on Cancer [AJCC] Cancer Staging Manual, version 8). Patients were randomized in a 1:1 ratio to receive either durvalumab plus a platinum-based chemotherapy before surgery followed by durvalumab post-surgery (Arm 1; a platinum-based chemotherapy plus durvalumab intravenously every three weeks (four cycles) before surgery, followed by durvalumab intravenously every four weeks (12 cycles)) or placebo plus a platinum-based chemotherapy before surgery followed by placebo post-surgery (Arm 2; a platinum-based chemotherapy plus placebo intravenously every three weeks (four cycles) before surgery, followed by placebo intravenously every four weeks (12 cycles)). Patients were also stratified by disease stage (Stage II versus Stage III) and by PD-L1 expression status (<1% versus ≥1%).
The two primary efficacy endpoints in this study were event-free survival (EFS; per blinded independent central review [BICR]) and pathological complete response (pCR; evaluated centrally). […]
Comparisons between the study arms were analyzed using stratified log-rank tests. […]

[2] = test system: resectable non-small cell lung cancer (R-NSCLC); assay: AEGEAN phase III: objective response prior to surgery, BICR (RECIST v1.1); format: in vivo, human; settings: mITT N = 366
Protocol: Tumors were evaluated per RECIST v1.1 using imaging collected at the following timepoints: baseline (≤28 days before randomization); after completing neoadjuvant treatment and before surgery; 5 weeks (±2 weeks) after surgery and before starting adjuvant treatment; every 12 weeks (±1 week) until Week 48 after surgery; every 24 weeks (±2 weeks) until Week 192 (i.e., ~4 years post-surgery); and every 48 weeks (±2 weeks) thereafter until local or distant recurrence, consent withdrawal, or death.
Efficacy assessments were performed and determined by pathology review or a BICR using RECIST 1.1 assessment, as applicable, including EFS (mITT and PD-L1 TC≥1% analysis set), pCR (mITT and PD-L1 TC≥1% analysis set), mPR (mITT and PD-L1 TC≥1% analysis set), DFS (modified resected set and PD-L1 TC≥1% resected set), and OS (mITT and PD-L1 TC≥1% analysis set). The EFS event of PD that precludes surgery or PD discovered during surgery that prevents completion of surgery will be determined by the Investigator.

[3] = mITT subgroup, durvalumab versus placebo, unstratified Cox model

## Durvalumab: antibody that selectively binds PD-L1 and blocks binding of PD-L1 to PD-1 and CD80; arm given with platinum-based chemotherapy before surgery
[1]; mITT N=740, BICR, first interim analysis, 31.9% maturity, data cut-off Nov. 10, 2022
  EFS stratified hazard ratio, durvalumab arm versus placebo arm: 0.68
[1]; [3]
  EFS HR, planned neoadjuvant platinum agent carboplatin: 0.73
  EFS HR, planned neoadjuvant platinum agent cisplatin: 0.59
[1]; mITT, BICR, first interim analysis, 31.9% maturity
  median EFS: not reached
[2]
  Complete response: number of patients: 4
  Complete response: patients: (1.1) %
  Not evaluable (objective response): number of patients: 25
  Not evaluable (objective response): patients: (6.8) %
  Objective response rate: (56.3) %
  Objective response rate: number of patients: 206
  Partial response: number of patients: 202
  Partial response: patients: (55.2) %
  Progression: number of patients: 11
  Progression: patients: (3.0) %
  Stable disease: number of patients: 124
  Stable disease: patients: (33.9) %
